Entries after “also recorded” stand apart in the source; their conditions may differ.
B1: IGFBPL-1: insulin-like growth factor binding protein-like 1 protein; mouse recombinant IGFBPL-1 used in tests (protein)
chain: LGLRDAGRRHPECSPCQQDRCPAPSPCPAPWISARDECGCCARCLGAEGASCGGPVGSRCGPGLVCASRASGTAPEGTGLCVCAQRGAVCGSDGRSYSSICALRLRARHAPRAHHGHLHKARDGPCEFAPVVLMPPRDIHNVTGTQVFLSCEVKAVPTPVITWKKVKHSPEGTEGLEELPGDHVNIAVQVRGGPSDHETTSWILINPLRKEDEGVYHCHAANAIGEAQSHGTVTVLDLNRYKSLYSSVPGDLL

Tests used:
[1] = test system: Retinal ganglion cells (RGCs) isolated from P0 mice; experiment: P0 RGC culture: neurite outgrowth and survival; format: cell-based, mouse; details: for effect on IGFBPL-1 induced neurite/axon growth: P0 RGC cultures treated with IGFBPL-1 plus inhibitor or neutralizing antibody; for RGC neurite outgrowth / axonal extension: P0 RGC cultures, 3 days, beta-III-tubulin/Tuj1 immunostaining; for RGC cell survival: P0 RGCs
Excerpt: The experiments described herein were aimed to elucidate the functional role and mechanisms of IGFBPL-1 on RGC survival and axon extension in mice. The expression pattern of IGFBPL-1 in the developing retina was examined in retinas at different developmental stage, ranging from embryonic day 16 through adult, using immunohistochemistry, western blot and quantitative RT-PCR. Retinal ganglion cells were purified using magnetic beads conjugated with Thy1.2 antibody from new born mouse pups at postnatal day 0 (P0), and cultured for up to five days in the presence or absence of IGFBPL-1 and/or IGF-I proteins. RGC survival and axonal growth were evaluated after three days in culture following LIVE/DEAD® and β-III-tubulin immunostaining. Lentiviral shRNAs were used to knockdown the expression of IGFBPL-1 and/or IGF-I in culture. The functional role of IGFBPL-1 in RGC development was further evaluated in IGFBPL-1 knockout (KO) mouse. RGC morphology and number were recorded using retinal vertical sections or whole-mount preparation. The number of axons in the optic nerve head was counted under electron microscopy. Data collected from the IGFBPL-1 KO mice were compared with that obtained from age-matched wildtype C57BL/6 littermates.
RGC neurite outgrowth in the absence (FIG. 3A) and presence (FIG. 3B) of IGFBPL-1 promotes in RGC cell culture. Retinal ganglion cells (RGCs) isolated from P0 mice were cultured in the absence (control) and presence of IGFBPL-1 (IGFBPL-1) for 3 days and were immunolabeled with primary antibody against a RGC specific marker Tuj1 (red). Note that RGCs extend long neurite in IGFBPL-1-treated cultures as compared to control culture group.

[2] = test system: cultured RGCs derived from P10 mice; experiment: P10 RGC culture: axon length and survival; format: cell-based, mouse; details: for axon length / neurite outgrowth: treated 3 days
Description: Cells were treated with control, IGF-I, IGFBPL1 or both for 3 days and were immunostained with βIII-tubulin to reveal axons.

mTOR = experiment: P10 retina incubation, western blot of phosphorylated mTOR; format: cell-based, mouse; details: P10 retinas incubated 30 min or 6 hours at 37° C.
Description: (§1) P10 retinas were dissected and incubated with IGF-I, IGFBPL1 and IGF-I+IGFBPL1 for 30 min or 6 hours at 37° C. Retina lysates were prepared for western blotting, using antibodies against IGF-1-mediated downstream signals, mTOR and Akt.

Akt = experiment: P10 retina incubation, western blot of phosphorylated Akt; format: cell-based, mouse; details: P10 retinas incubated 30 min or 6 hours at 37° C.
Description: as §1

IGF-1 = IGF-1 (Mus musculus, UniProt P05017); experiment: Co-immunoprecipitation of IGFBPL-1 and IGF-1 (western blot); format: binding; details: mouse recombinant proteins and retina lysates
Sequence of IGF-1 (P05017 1-118 limits assumed): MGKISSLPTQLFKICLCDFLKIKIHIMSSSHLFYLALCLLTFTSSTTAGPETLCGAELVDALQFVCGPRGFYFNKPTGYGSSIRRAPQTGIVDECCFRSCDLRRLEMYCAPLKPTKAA
Excerpt: FIGS. 5(I) A and B and FIGS. 5 (II) A and B are western blots showing binding of IGFBP-1 with IGF-I using mouse recombinant IGFBPL-1 and IGF-1 (FIG. 5(I)) and retina lysates (FIG. 5(II)).

hippocampal neurons = experiment: Hippocampal neuronal cultures: neurite outgrowth; format: cell-based; details: beta III tubulin staining
Excerpt: FIG. 9B are histograms showing quantification of neurite outgrowth in control; and neurons exposed to IGFBPL-1; IGF-1; IGFBPL-1+IGF-1; IGFBPL-1+H1356; IGFBPL-1+Neut. Ab; IGFBPL-1+IGFI-1+Neut. Ab.

[3] = test system: RGC axons after optic nerve crush; experiment: Optic nerve regeneration in vivo after optic nerve crush; details: intravitreous delivery, optic nerve crush in mice
Excerpt: IGF-1 ([…]). IGFBPL-1 (n=7). IGF1+IGFBPL1 (n=6).

Molecule	effect on IGFBPL-1 induced neurite/axon growth [1]	effect on IGFBPL-1 induced neurite/axon growth ([1]; listed as inhibitor of IGF-I and IGFBP binding)	RGC neurite outgrowth / axonal extension [1]	RGC neurite outgrowth / axonal extension ([1]; listed as IGF-I)	RGC cell survival [1]	RGC survival [2]	axon length / neurite outgrowth [2]	phosphorylation of mTOR (mTOR)	phosphorylation of Akt (Akt)	RGC neurite outgrowth / axonal extension ([1]; listed as IGFBPL1)	binding / interaction with IGF-1 (IGF-1)	neurite growth in hippocampal neuronal cultures (hippocampal neurons)	regeneration of RGC axons [3]
O=C(O)c1cc2cc(O)c(O)cc2c(C(=O)c2ccc(O)c(O)c2)n1 [NBI-31772, reference compound]	abolishes the neurite growth effect of IGFBPL-1	abolishes the growth promoting activity of IGFBPL1											
IGF-1: Insulin Growth Factor 1 protein			robust neurite outgrowth	promotes both neurite outgrowth and cell survival	promotes both neurite outgrowth and cell survival	affect the survival	does not promote neurite outgrowth	increased level of phosphorylated mTOR and Akt	increased level of phosphorylated mTOR and Akt				
B1			significantly promoted axonal extension; also recorded: promotes RGC neurite outgrowth; also recorded: stimulates neurite outgrowth; also recorded: robust neurite outgrowth		promotes both neurite outgrowth and cell survival	affect the survival	does not promote neurite outgrowth	prolongs the phosphorylation		promotes both neurite outgrowth and cell survival	directly interacts with IGF-1	induced neurite growth	significantly promotes the regeneration of RGC axons
